Data on three molecules can be found in patent US11014890B2, “Forms of (R)-N-(4-chlorophenyl)-2-(cis-4-(6-fluoroquinolin-4-yl)cyclohexyl)propanamide” (SHENZHEN RENTAI PHARMATECH LTD, priority 2018, dated 2021).

Holding throughout (assay type): physicochemical
Series [1] is described as follows: light stability test (XRPD comparison). Particulars: 25° C. and 4500 lux of light, 5 d and 10 d; XRPD FIGS. 11, 12 and 27. The procedure:
(§1) X-Ray Powder Diffractometer (XRPD)
(§2) Model: Bruker, Germany, BRUKER D8 DISCOVER
(§3) Method: Cu target Ka, voltage 40 KV, current 40 mA, test angle 3-45°, step size 0.02, exposure time 0.2 S, light pipe slit width 1 mm, detector slit width 2.7 mm.
Model: Shanghai Yiheng Scientific Instrument Co., Ltd., MGC-100
(§4) The products prepared in Embodiment 1 and Embodiment 6, and the amorphous active pharmaceutical ingredient were respectively subjected to experimental tests for light stability, high-temperature stability, accelerated stability, high-humidity stability, and water adsorption.
(1) The test products were respectively placed under 25° C. and 4500 lux of light and tested for 5 d and 10 d stability, and the results are shown in FIGS. 11, 12 and 27.

Series [2] is described as follows: high-temperature stability test (XRPD comparison). Particulars: 60° C., 5 d and 10 d; XRPD FIGS. 13, 14 and 28. The procedure:
as §1, §2, §3
Electrothermal Constant-Temperature Dry Box
(§5) Model: DHG-9011A (Shanghai Jinghong Experimental Equipment Co., Ltd.) Programmable drug stability constant temperature and humidity tester
as §4
(2) The test products were respectively placed under 60° C. and tested for 5 d and 10 d stability, and the results are shown in FIGS. 13, 14 and 28.

Series [3] in a line: accelerated stability test (XRPD comparison). Conditions: 40° C. and humidity of 75% RH; XRPD FIGS. 15, 16 and 29. The procedure:
as §1, §2, §3, §5
Model: CMA-100C (Shanghai Puhan Precision Equipment Co., Ltd.)
as §4

Series [4] in a line: high-humidity stability test (XRPD comparison). Particulars: 25° C. and humidity of 92.5% RH; XRPD FIGS. 32, 33 and 34. The procedure:
as §1, §2, §3, §4

A short description of series [5]: water adsorption test (DVS). Particulars: 25° C., humidity 0-90, 10% per step, weight change less than 0.002% in each step of 10 minutes; FIGS. 17, 18 and 30. The procedure: DVS Model: SMS, U.K, DVS intrinsic Method: 25° C., 10% humidity per step, the judgment standard is less than 0.002% for 10 min The products prepared in Embodiment 1 and Embodiment 6, and the amorphous active pharmaceutical ingredient were respectively subjected to experimental tests for light stability, high-temperature stability, accelerated stability, high-humidity stability, and water adsorption. (5) The test products were respectively subjected to the water adsorption test, the experimental conditions were as follows: 25° C., humidity 0-90, 10% per step, and the weight change was less than 0.002% in each step of 10 minutes.

In the case of `C[C@@H](C(=O)Nc1ccc(Cl)cc1)[C@H]1CC[C@@H](c2ccnc3ccc(F)cc32)CC1` [Form B, (R)—N-(4-chlorophenyl)-2-(cis-4-(6-fluoroquinolin-4-yl)cyclohexyl)propanamide], the light stability result in series [1] was “good stability”. The high-temperature stability entry in series [2] is given as “good stability”. In series [3], the accelerated stability result is on record as “good stability”. In addition, in series [4], the high-humidity stability result was “good stability”. The “water adsorption (hygroscopic curve, DVS)” value (from here on “water adsorption”) in series [5] is on record as “do not adsorb water”.
On to `C[C@@H](C(=O)Nc1ccc(Cl)cc1)[C@H]1CC[C@@H](c2ccnc3ccc(F)cc32)CC1` [Form C, (R)—N-(4-chlorophenyl)-2-(cis-4-(6-fluoroquinolin-4-yl)cyclohexyl)propanamide], for which the light stability result in series [1] was “good stability”. In addition, the high-temperature stability result in series [2] was “good stability”. In addition, the accelerated stability entry in series [3] is given as “good stability”. Also, the high-humidity stability result in series [4] is reported as “good stability”. Further, the “water adsorption” value in series [5] is listed as “do not adsorb water”.
Turning to `C[C@@H](C(=O)Nc1ccc(Cl)cc1)[C@H]1CC[C@@H](c2ccnc3ccc(F)cc32)CC1` [amorphous active pharmaceutical ingredient] [(R)—N-(4-chlorophenyl)-2-(cis-4-(6-fluoroquinolin-4-yl)cyclohexyl)propanamide, reference compound], the light stability entry in series [1] was “good stability”. In addition, in series [2], the high-temperature stability result is recorded as “good stability”. In addition, in series [3], the accelerated stability result is “good stability”. Moreover, the high-humidity stability result in series [4] is given as “good stability”. Besides, the “water adsorption” value in series [5] is “large hygroscopicity”.
